# ChEMBL document CHEMBL1201862, “PubChem BioAssay data set” (2004)
#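 Five compound concentrations were applied to cells in 96-well plates for 48 hours; endpoints were derived by simple linear interpolation of the resulting dose-response curve. At the GI50, growth is halved.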 Calls of active or inactive are those of the source. Rule as the data show it: active = GI50 up to about 1.1 µM and inactive = higher.
# Experiments:
# Test in all cases: NCI tumour cell line growth inhibition, 48 h
# [1] = tested on: 786-0
# [2] = tested on: A498
# [3] = tested on: A549
# [4] = tested on: ACHN
# [5] = tested on: CCRF-CEM
# [6] = tested on: COLO 205
# [7] = tested on: DLD-1
# [8] = tested on: DMS-114
# [9] = tested on: DMS-273
# [10] = tested on: EKVX
# [11] = tested on: HCC 2998
# [12] = tested on: HCT-116
# [13] = tested on: HCT-15
# [14] = tested on: HL-60
# [15] = tested on: HOP-18
# [16] = tested on: HOP-62
# [17] = tested on: HT-29
# [18] = tested on: IGROV-1
# [19] = tested on: K562
# [20] = tested on: KM-20L2
# [21] = tested on: KM12
# [22] = tested on: LOX IMVI
# [23] = tested on: LXFL 529
# [24] = tested on: M14
# [25] = tested on: M19-MEL
# [26] = tested on: MOLT-4
# [27] = tested on: Malme-3M
# [28] = tested on: NCI-H226
# [29] = tested on: NCI-H23
# [30] = tested on: NCI-H460
# [31] = tested on: NCI-H522
# [32] = tested on: OVCAR-3
# [33] = tested on: OVCAR-4
# [34] = tested on: OVCAR-5
# [35] = tested on: OVCAR-8
# [36] = tested on: RXF 393
# [37] = tested on: RXF 631
# [38] = tested on: SF-268
# [39] = tested on: SF-539
# [40] = tested on: SK-MEL-28
# [41] = tested on: SK-MEL-2
# [42] = tested on: SK-MEL-5
# [43] = tested on: SK-OV-3
# [44] = tested on: SN12C
# [45] = tested on: SNB-19
# [46] = tested on: SNB-75
# [47] = tested on: SNB-78
# [48] = tested on: SR
# [49] = tested on: SW-620
# [50] = tested on: TK-10
# [51] = tested on: U-251
# [52] = tested on: UACC-257
# [53] = tested on: UACC-62
# [54] = tested on: UO-31
# [55] = tested on: CAKI-1
# [56] = tested on: SF-295
compound,measurement,setting,value
CN(C)/C=N\c1ccn(CCO)c(=O)n1,GI50,[1],> 100 µM (inactive)
same,GI50,[2],> 100 µM (inactive)
same,GI50,[3],> 100 µM (inactive)
same,GI50,[4],> 100 µM (inactive)
same,GI50,[5],> 100 µM (inactive)
same,GI50,[6],> 100 µM (inactive)
same,GI50,[7],> 100 µM (inactive)
same,GI50,[8],> 100 µM (inactive)
same,GI50,[9],> 100 µM (inactive)
same,GI50,[10],> 100 µM (inactive)
same,GI50,[11],> 100 µM (inactive)
same,GI50,[12],> 100 µM (inactive)
same,GI50,[13],> 100 µM
same,GI50,[14],> 100 µM (inactive)
same,GI50,[15],> 100 µM (inactive)
same,GI50,[16],> 100 µM (inactive)
same,GI50,[17],> 100 µM (inactive)
same,GI50,[18],> 100 µM (inactive)
same,GI50,[19],> 100 µM (inactive)
same,GI50,[20],> 100 µM (inactive)
same,GI50,[21],> 100 µM (inactive)
same,GI50,[22],> 100 µM (inactive)
same,GI50,[23],> 100 µM (inactive)
same,GI50,[24],> 100 µM (inactive)
same,GI50,[25],> 100 µM (inactive)
same,GI50,[26],> 100 µM (inactive)
same,GI50,[27],> 100 µM (inactive)
same,GI50,[28],> 100 µM (inactive)
same,GI50,[29],> 100 µM (inactive)
same,GI50,[30],> 100 µM (inactive)
same,GI50,[31],> 100 µM (inactive)
same,GI50,[32],> 100 µM (inactive)
same,GI50,[33],> 100 µM (inactive)
same,GI50,[34],> 100 µM (inactive)
same,GI50,[35],> 100 µM (inactive)
same,GI50,[36],> 100 µM (inactive)
same,GI50,[37],> 100 µM (inactive)
same,GI50,[38],> 100 µM (inactive)
same,GI50,[39],> 100 µM (inactive)
same,GI50,[40],> 100 µM (inactive)
same,GI50,[41],> 100 µM (inactive)
same,GI50,[42],> 100 µM (inactive)
same,GI50,[43],> 100 µM (inactive)
same,GI50,[44],> 100 µM (inactive)
same,GI50,[45],> 100 µM (inactive)
same,GI50,[46],> 100 µM (inactive)
same,GI50,[47],> 100 µM (inactive)
same,GI50,[48],> 100 µM (inactive)
same,GI50,[49],> 100 µM (inactive)
same,GI50,[50],> 100 µM (inactive)
same,GI50,[51],> 100 µM (inactive)
same,GI50,[52],> 100 µM (inactive)
same,GI50,[53],> 100 µM (inactive)
same,GI50,[54],> 100 µM (inactive)
CC[C@H]1CNC(=O)CC1CC(=O)OC (stereo partly specified),GI50,[1],> 100 µM (inactive)
same,GI50,[2],> 100 µM (inactive)
same,GI50,[3],> 100 µM (inactive)
same,GI50,[4],> 100 µM (inactive)
same,GI50,[55],> 100 µM (inactive)
same,GI50,[7],> 100 µM (inactive)
same,GI50,[8],> 100 µM (inactive)
same,GI50,[9],> 100 µM (inactive)
same,GI50,[10],> 100 µM (inactive)
same,GI50,[11],> 100 µM (inactive)
same,GI50,[12],> 100 µM (inactive)
same,GI50,[13],> 100 µM
same,GI50,[16],> 100 µM (inactive)
same,GI50,[17],> 100 µM (inactive)
same,GI50,[18],> 100 µM (inactive)
same,GI50,[21],> 100 µM (inactive)
same,GI50,[22],> 100 µM (inactive)
same,GI50,[24],> 100 µM (inactive)
same,GI50,[26],> 100 µM (inactive)
same,GI50,[27],> 100 µM (inactive)
same,GI50,[28],> 100 µM (inactive)
same,GI50,[29],> 100 µM (inactive)
same,GI50,[30],> 100 µM (inactive)
same,GI50,[31],> 100 µM (inactive)
same,GI50,[33],> 100 µM (inactive)
same,GI50,[34],> 100 µM (inactive)
same,GI50,[35],> 100 µM (inactive)
same,GI50,[36],> 100 µM (inactive)
same,GI50,[37],> 100 µM (inactive)
same,GI50,[38],> 100 µM (inactive)
same,GI50,[56],> 100 µM (inactive)
same,GI50,[39],> 100 µM (inactive)
same,GI50,[40],> 100 µM (inactive)
same,GI50,[41],> 100 µM (inactive)
same,GI50,[42],> 100 µM (inactive)
same,GI50,[43],> 100 µM (inactive)
same,GI50,[44],> 100 µM (inactive)
same,GI50,[45],> 100 µM (inactive)
same,GI50,[46],> 100 µM (inactive)
same,GI50,[47],> 100 µM (inactive)
same,GI50,[48],> 100 µM (inactive)
same,GI50,[49],> 100 µM (inactive)
same,GI50,[50],> 100 µM (inactive)
same,GI50,[51],> 100 µM (inactive)
same,GI50,[52],> 100 µM (inactive)
same,GI50,[53],> 100 µM (inactive)
same,GI50,[54],> 100 µM (inactive)
